Source: patent US7060824B2, “Pyrrolotriazolopyrimidinone derivatives” (Almirall Prodesfarma, S.A., priority 2000, dated 2006)
pIC50: −log10 of the molar value.

Target: T1, cyclic GMP specific phosphodiesterase (PDE 5) (Homo sapiens, UniProt O76074)
T1 construct: was isolated from human platelet lysates by ion exchange chromatography using a Mono-Q column; from tissue; host or cells: human platelets (lysate, Mono-Q ion exchange fraction)
Test: PDE 5 inhibition, enzyme isolated from human platelet lysates, [3H]-cyclic GMP substrate
Format: biochemical
Conditions: enzyme from human platelet lysates (Mono-Q); 0.25 mM [3H]-cyclic GMP as substrate; read-out: IC50 PDE5
Protocol: The cyclic GMP specific phosphodiesterase (PEE 5) was isolated from human platelet lysates by ion exchange chromatography using a Mono-Q column. The enzyme activity was determined using 0.25 mM [3H]-cyclic GMP as substrate. The purification of the enzyme and the assessment of the PDE 5 inhibitory activity of our compounds were performed essentially as described by Gristwood et al., Br. J. Pharmacol. 1992, 105, 985–991.

Compound | pIC50
CCCn1c(=O)n2cnnc2c2[nH]c(-c3cc(S(=O)(=O)N4CCCN(C)CC4)ccc3OCC)c(Cl)c21 [Example 11, 7-Chloro-8-[2-ethoxy-5-(4-methyl-[1,4]diazepane-1-sulfonyl)phenyl]-6-propyl-6,9-dihydro-5H-pyrrolo[2,3-e][1,2,4]triazolo[4,3-c]pyrimidine-5-one] | 10.00
CCCOc1ccc(S(=O)(=O)NC2CC(C)(C)NC(C)(C)C2)cc1-c1[nH]c2c(c1Cl)n(CCC)c(=O)n1cnnc21 [Example 41, 3-(7-Chloro-5-oxo-6-propyl-6,9-dihydro-5H-pyrrolo[2,3-e][1,2,4]triazolo[4,3-c]pyrimidin-8-yl)-4-propoxy-N-(2,2,6,6-tetramethylpiperidin-4-yl)benzenesulfonamide] | 9.77
CCCOc1ccc(S(=O)(=O)NCCO)cc1-c1[nH]c2c(c1Cl)n(CCC)c(=O)n1cnnc21 [Example 50, 3-(7-Chloro-5-oxo-6-propyl-6,9-dihydro-5H-pyrrolo[2,3-e][1,2,4]triazolo[4,3-c]pyrimidin-8-yl)-N-(2-hydroxyethyl)-4-propoxybenzenesulfonamide] | 9.82
CCCOc1ccc(S(=O)(=O)N2CCCN(CCO)CC2)cc1-c1[nH]c2c(c1Br)n(CCC)c(=O)n1cnnc21 [Example 71, 7-Bromo-8-(5-[4-(2-Hydroxyethyl)-[1,4]diazepane-1-sulfonyl]-2-propoxyphenyl}-6-propyl-6,9-dihydro-5H-pyrrolo[2,3-e][1,2,4]triazolo[4,3-c]pyrimidine-5-one] | 9.92
CCCOc1ccc(S(=O)(=O)N2CCNCC2)cc1-c1[nH]c2c(c1Br)n(CCC)c(=O)n1cnnc21 [Example 74, 7-Bromo-8-[5-(piperazine-1-sulfonyl)-2-propoxyphenyl]-6-propyl-6,9-dihydro-5H-pyrrolo[2,3-e][1,2,4]triazolo[4,3-c]pyrimidine-5-one] | 9.60
CCCn1c(=O)n2cnnc2c2[nH]c(-c3cc(S(=O)(=O)N4CCN5CCC[C@H]5C4)ccc3OCC)c(Cl)c21 [Example 75, 7-Chloro-8-[2-ethoxy-5-((S)-hexahydropyrrolo[1,2-a]pyrazine-2-sulfonyl)phenyl]-6-propyl-6,9-dihydro-5H-pyrrolo[2,3-e][1,2,4]triazolo[4,3-c]pyrimidine-5-one] | 9.72
CCCn1c(=O)n2cnnc2c2[nH]c(-c3cc(S(=O)(=O)N4C[C@@H]5C[C@H]4CN5C)ccc3OCC)c(Cl)c21 [Example 79, 7-Chloro-8-[2-ethoxy-5-((1S, 4S)-5-methyl-2,5-diazabicyclo[2.2.1]heptane-2-sulfonyl)phenyl]-6-propyl-6,9-dihydro-5H-pyrrolo[2,3-e][1,2,4]triazolo[4,3-c]pyrimidine-5-one] | 9.72

Results, then the compound that gave them:

pIC50 | Compound
10.38 | CCCn1c(=O)n2cnnc2c2[nH]c(-c3cc(S(=O)(=O)N4CCN(CCOCC)CC4)ccc3OCC)c(Cl)c21 [Example 24, 7-Chloro-8-{2-ethoxy-5-[4-(2-ethoxyethyl)piperazine-1-sulfonyl]phenyl}-6-propyl-6,9-dihydro-5H-pyrrolo[2,3-e][1,2,4]triazolo[4,3-c]pyrimidine-5-one]
9.66 | CCCOc1ccc(S(=O)(=O)N2CCN(CCCO)CC2)cc1-c1[nH]c2c(c1Cl)n(CCC)c(=O)n1cnnc21 [Example 34, 7-Chloro-8-{5-[4-(3-hydroxypropyl)piperazine-1-sulfonyl)-2-propoxyphenyl]-6-propyl-6,9-dihydro-5H-pyrrolo[2,3-e][1,2,4]triazolo[4,3-c]pyrimidine-5-one]
9.68 | C=CCN1CCN(S(=O)(=O)c2ccc(OCCC)c(-c3[nH]c4c(c3Cl)n(CCC)c(=O)n3cnnc43)c2)CC1 [Example 45, 8-[5-(4-Allylpiperazine-1-sulfonyl)-2-propoxyphenyl]-7-chloro-6-propyl-6,9-dihydro-5H-pyrrolo[2,3-e][1,2,4]triazolo[4,3-c]pyrimidine-5-one]
9.52 | CCCOc1ccc(S(=O)(=O)N2CCN(C)CC2)cc1-c1[nH]c2c(c1Br)n(CCC)c(=O)n1cnnc21 [Example 58, 7-Bromo-8-[5-(4-methylpiperazine-1-sulfonyl)-2-propoxyphenyl]-6-propyl-6,9-dihydro-5H-pyrrolo[2,3-e][1,2,4]triazolo[4,3-c]pyrimidine-5-one]
9.48 | CCCOc1ccc(S(=O)(=O)N2CCN(CCO)CC2)cc1-c1[nH]c2c(c1Br)n(CCC)c(=O)n1cnnc21 [Example 73, 7-Bromo-8-{5-[4-(2-hydroxyethyl)piperazine-1-sulfonyl]-2-propoxyphenyl}-6-propyl-6,9-dihydro-5H-pyrrolo[2,3-e][1,2,4]triazolo[4,3-c]pyrimidine-5-one]
